Test results reported in patent US10822318B2, “Lactone-based probes and methods of use thereof” (REGENTS OF THE UNIVERSITY OF MINNESOTA, priority 2017, dated 2020).

Key:
PBPs = assay: Gel-based analysis of β-lactone probes applied to Bacillus subtilis PY79 cells; format: cell-based; conditions: B. subtilis PY79 cells, probe 5 μg/ml
Protocol: Bacillus subtilis strain PY79, was grown in Luria Bertani (LB) medium in 100×17 mm tubes by incubation at 37° C., shaking at 200 rpm. For labeling experiments, overnight cultures were diluted to OD600=0.01-0.05 and grown as above. Samples with OD600=0.35-0.40 were utilized in labeling experiments conducted as previously described (Kocaoglu, O, et al. (2013) Curr Protoc Chem Biol 5, 239), and summarized as follows: Cell pellets from 1.0 ml of B. subtilis cultures were harvested by centrifugation (8,000×g for 2 min at RT) and washed with phosphate buffered saline (PBS; pH 7.4). […] The protein concentration was measured by NanoDrop 1000 Spectrophotometer (Thermo Scientific) or NanoPhotometer P330 (IMPLEN). […] The protein bands were separated by gel electrophoresis for 1.5 h at 180 V, 400 mA, 60 W. The gel was rinsed with distilled water three times before fluorescence scanning (method description for FIGS. 10a and 10b). […]
After SDS-PAGE, labeled proteins were visualized at 50-μm resolution in gels using a Typhoon 9210 gel scanner (Amersham Biosciences) with 580-nm bandpass filter for TAMRA, 526-nm short-pass filter for fluorescein and BODIPY FL, and 670-nm bandpass filter for BODIPY 650/665. All gel images were analyzed using ImageJ software (National Institutes of Health). […]

PBP2x and PBP2b = assay: Dual-labeling experiments, 7FL followed by 8T; format: cell-based, S. pneumoniae; conditions: both 5 μg/mL for 20 minutes
Protocol: S. pneumoniae E193 (Δpbp1b) cells were grown in BHI broth at 37° C. in an atmosphere of 5% CO2 to reach an OD620 of 0.2-0.25. Cells from 1.5 ml of culture were harvested by centrifugation (16,100×g for 2 min at RT) and washed with 1 ml of PBS, pH 7.4. Cell pellets were resuspended in 50 μl of PBS containing 5 μg/ml lactone-L-Phe-FL (7FL) and incubated at RT for 20 min. Cells were then washed with 1 ml PBS prior to suspension in 50 μl of 5 μg/ml solution of Lac-D-Phe-TAMRA (8T) in PBS. After incubation for 20 min at RT, cells were washed and resuspended in 100 μl of PBS containing 10 mg/ml of lysozyme. Cell lysis and sample preparation for SDS PAGE was followed as described earlier.

Substance	PBPs labeled (gel-based labeling profile) (PBPs)	PBP visualized in dual labeling (PBP2x and PBP2b)
(2S,3R)-β-lactone-L-Phe-fluorescein [Probe 7FL]	comparable to the TAMRA probes	PBP2x
(2S, 3R)-β-lactone-D-Phe-TAMRA [Probe 8T]	PBP1, PBP2b and PBP5	PBP2b
